Key:
Ixodes holocyclus = assay: Efficacy against induced Ixodes holocyclus infestations on dogs (Example 5)
Amblyomma americanum = assay: Long lasting efficacy against A. americanum on dogs (Example 6, Table 52); type: in vivo
Method: Forty two beagles were allotted to seven groups of six dogs each. Groups 1 and 2 served as untreated controls. Groups 3, 4 and 5 were each treated on Day 0 with three different compositions of the invention described in Tables 30, 31 and 32, respectively, containing Compound A in an amount to deliver a dose of about 20 mg/kg of body weight. Similarly, on Day 0, Groups 6 and 7 were each treated with the compositions described in Tables 30 and 32, respectively, containing Compound A to deliver a dose of about 20 mg/kg of body weight.
Dogs in Groups 1, 3, 4 and 5 were infested with approximately 50 A. americanum and dogs in Groups 2, 6 and 7 were infested with approximately 50 D. variabilis on Days −1, 42, 56, 70, 77, 84, 91 and 98. Dogs in Groups 1, 2, 3, 6 and 7 were also infested on Day 105. Ticks were counted upon removal at approximately 48 hours post treatment on Day 2 and 48 hours post infestation on Days 44, 58, 72, 79, 86, 93, 100 and 107. Tables 52 and 53 below show the exceptional long-lasting efficacy of the inventive compositions against A. americanum and D. variabilis.

[1] = test system: Amblyomma americanum (lone star tick); assay: Efficacy against induced Amblyomma americanum infestations on dogs (Example 4); type: in vivo; details: at least approx. 2.5 mg/kg once on Day 0
Method: Two treatment groups were formed, each containing eight dogs each. Dogs in Group 1 were untreated. Dogs in Group 2 were treated once on Day 0 with soft chewable compositions containing Compound A at a concentration to deliver a dose of at least approximately 2.5 mg/kg.
Ticks were counted on Days 2, 9, 16, 23, 30 and 38. The percent efficacy of the treated group versus the untreated control group 48 hours after infestation exceeded 91% at Days 2, 9, 16 and 23, with percent efficacy values of 99.2, 98.7, 99.4 and 91.7, respectively (p-values≤0.001). At Day 38 the percent efficacy was measured at 89.7%.

O=C(CNC(=O)c1ccc(C2=NOC(c3cc(Cl)cc(C(F)(F)F)c3)(C(F)(F)F)C2)c2ccccc12)NCC(F)(F)F (centres unmarked) [Compound A, 4-[5-[3-chloro-5-(trifluoromethyl)phenyl]-4,5-dihydro-5-(trifluoromethyl)-3-isoxazolyl]-N-[2-oxo-2-[(2,2,2-trifluoroethyl)amino]ethyl]-1-naphthalenecarboxamide]
Percent efficacy (Ixodes holocyclus; 24 hours post infestation on Days 1, 8, 15 and 22, Table 10 soft chew, at least 2.5 mg/kg once on Day 0): at least 95.8%
Percent efficacy (Ixodes holocyclus; 48 hours post infestation, all time points measured, once on Day 0, at least 2.5 mg/kg Compound A (Table 10), combination plus at least 0.5 mg/kg milbemycin oxime (Table 13)): at least 98.7%
Percent efficacy (Ixodes holocyclus; 72 hours post infestation, all time points measured, once on Day 0, at least 2.5 mg/kg Compound A (Table 10), combination plus at least 0.5 mg/kg milbemycin oxime (Table 13)): at least 99.2%
% Reduction Ticks (Amblyomma americanum; Group 3, composition of Table 30, about 20 mg/kg once on Day 0, dogs, Day 2): 100.0%
% Reduction Ticks (Amblyomma americanum; Group 3, composition of Table 30, about 20 mg/kg once on Day 0, dogs, Day 44): 98.4%
% Reduction Ticks (Amblyomma americanum; Group 3, composition of Table 30, about 20 mg/kg once on Day 0, dogs, Day 58): 98.8%
% Reduction Ticks (Amblyomma americanum; Group 3, composition of Table 30, about 20 mg/kg once on Day 0, dogs, Day 72): 99.5%
% Reduction Ticks (Amblyomma americanum; Group 3, composition of Table 30, about 20 mg/kg once on Day 0, dogs, Day 79): 94.4%
% Reduction Ticks (Amblyomma americanum; Group 3, composition of Table 30, about 20 mg/kg once on Day 0, dogs, Day 86): 98.9%
% Reduction Ticks (Amblyomma americanum; Group 3, composition of Table 30, about 20 mg/kg once on Day 0, dogs, Day 93): 99.5%
% Reduction Ticks (Amblyomma americanum; Group 3, composition of Table 30, about 20 mg/kg once on Day 0, dogs, Day 100): 95.6%
% Reduction Ticks (Amblyomma americanum; Group 3, composition of Table 30, about 20 mg/kg once on Day 0, dogs, Day 107): 93.4%
% Reduction Ticks (Amblyomma americanum; Group 4, composition of Table 31, about 20 mg/kg once on Day 0, dogs, Day 2): 100.0%
% Reduction Ticks (Amblyomma americanum; Group 4, composition of Table 31, about 20 mg/kg once on Day 0, dogs, Day 44): 99.4%
% Reduction Ticks (Amblyomma americanum; Group 4, composition of Table 31, about 20 mg/kg once on Day 0, dogs, Day 58): 99.4%
% Reduction Ticks (Amblyomma americanum; Group 4, composition of Table 31, about 20 mg/kg once on Day 0, dogs, Day 72): 97.7%
% Reduction Ticks (Amblyomma americanum; Group 4, composition of Table 31, about 20 mg/kg once on Day 0, dogs, Day 79): 88.6%
% Reduction Ticks (Amblyomma americanum; Group 4, composition of Table 31, about 20 mg/kg once on Day 0, dogs, Day 86): 97.5%
% Reduction Ticks (Amblyomma americanum; Group 4, composition of Table 31, about 20 mg/kg once on Day 0, dogs, Day 93): 97.7%
% Reduction Ticks (Amblyomma americanum; Group 4, composition of Table 31, about 20 mg/kg once on Day 0, dogs, Day 100): 90.9%
% Reduction Ticks (Amblyomma americanum; Group 5, composition of Table 32, about 20 mg/kg once on Day 0, dogs, Day 2): 100.0%
% Reduction Ticks (Amblyomma americanum; Group 5, composition of Table 32, about 20 mg/kg once on Day 0, dogs, Day 44): 100.0%
% Reduction Ticks (Amblyomma americanum; Group 5, composition of Table 32, about 20 mg/kg once on Day 0, dogs, Day 58): 99.5%
% Reduction Ticks (Amblyomma americanum; Group 5, composition of Table 32, about 20 mg/kg once on Day 0, dogs, Day 72): 100.0%
% Reduction Ticks (Amblyomma americanum; Group 5, composition of Table 32, about 20 mg/kg once on Day 0, dogs, Day 79): 98.8%
% Reduction Ticks (Amblyomma americanum; Group 5, composition of Table 32, about 20 mg/kg once on Day 0, dogs, Day 86): 97.8%
% Reduction Ticks (Amblyomma americanum; Group 5, composition of Table 32, about 20 mg/kg once on Day 0, dogs, Day 93): 98.2%
% Reduction Ticks (Amblyomma americanum; Group 5, composition of Table 32, about 20 mg/kg once on Day 0, dogs, Day 100): 87.8%
Percent efficacy versus untreated control group ([1]; 48 hours after infestation, at Days 2, 9, 16 and 23, Table 10 soft chew): exceeded 91%
Percent efficacy versus untreated control group ([1]; Day 2, 48 hours after infestation, Table 10 soft chew): 99.2%
Percent efficacy versus untreated control group ([1]; Day 9, 48 hours after infestation, Table 10 soft chew): 98.7%
Percent efficacy versus untreated control group ([1]; Day 16, 48 hours after infestation, Table 10 soft chew): 99.4%
Percent efficacy versus untreated control group ([1]; Day 23, 48 hours after infestation, Table 10 soft chew): 91.7%
Percent efficacy versus untreated control group ([1]; Day 38, Table 10 soft chew): 89.7%
Duration of excellent control of Amblyomma americanum ([1]; Table 10 soft chew): > 30 days

— patent US9931320B2, “Parasiticidal oral veterinary compositions comprising systemically-acting active agents, methods and uses thereof” (MERIAL INC., priority 2012, dated 2018)
